Experiments:
GBM5522 = test: Antiproliferative activity, MTT assay, GBM5522; assay type: cell-based; settings: low-passage glioblastoma GBM5522, 72 h
GBM6138 = test: Antiproliferative activity, MTT assay, GBM6138; assay type: cell-based; settings: low-passage glioblastoma GBM6138, 72 h

SMILES | IC50 (GBM5522) [µM] | IC50 (GBM6138) [µM]
CC1(C)Cc2c(C#N)c(SCC(N)=O)nc(N3CCNCC3)c2CO1 [DO11-37, 2-[(5-Cyano-3,3-dimethyl-8-piperazin-1-yl-3,4-dihydro-1H-pyrano[3,4-c]pyridin-6-yl)thio]acetamide] | 309 ± 63.3 | 571 ± 77.7
CC1(C)Cc2c(C#N)c(SCc3ccccc3Cl)nc(N3CCNCC3)c2CO1 [DO11-42, 6-[(2-Chlorobenzyl)thio]-3,3-dimethyl-8-piperazin-1-yl-3,4-dihydro-1H-pyrano[3,4-c]pyridine-5-carbonitrile] | 4.2 ± 1.3 | 51.2 ± 10.7
COc1cccc(NC(=O)CSc2nc(N3CCNCC3)c3c(c2C#N)CC(C)(C)OC3)c1 [DO11-47, 2-[(5-Cyano-3,3-dimethyl-8-piperazin-1-yl-3,4-dihydro-1H-pyrano[3,4-c]pyridin-6-yl)thio]-N-(3-methoxyphenyl)acetamide] | 20 ± 6.8 | 104 ± 22.1
COc1ccccc1NC(=O)CSc1nc(N2CCNCC2)c2c(c1C#N)CC(C)(C)OC2 [DO11-48, 2-[(5-Cyano-3,3-dimethyl-8-piperazin-1-yl-3,4-dihydro-1H-pyrano[3,4-c]pyridin-6-yl)thio]-N-(2-methoxyphenyl)acetamide] | 3.8 ± 1.5 | 27.9 ± 2.6
CC(=O)c1ccc(NC(=O)CSc2nc(N3CCNCC3)c3c(c2C#N)CC(C)(C)OC3)cc1 [DO11-50, N-(4-acetylphenyl)-2-[(5-cyano-3,3-dimethyl-8-piperazin-1-yl-3,4-dihydro-1H-pyrano[3,4-c]pyridin-6-yl)thio]acetamide] | 15.9 ± 4.2 | 54.7 ± 28.7
CNC(=O)c1cc(Oc2ccc(NC(=O)Nc3ccc(Cl)c(C(F)(F)F)c3)cc2)ccn1 [Sorafenib, reference compound] | 84 ± 14 | –

— publication PMC12071598, “Piperazine-Substituted Pyranopyridines Exhibit Antiproliferative Activity and Act as Inhibitors of HBV Virion Production” (International Journal of Molecular Sciences, 2025)
